According to patent US20240417412A1, “HETEROCYCLIC COMPOUNDS AND METHODS OF USE” (AMGEN INC., priority 2022, published 2024):
Where two headings read alike, the source gives them in different places.

How the values were obtained:
p-ERK (AsPC-1 cells) = assay: Phospho-ERK1/2 MSD Assay; format: cell-based
Description: Sixteen hours prior to compound treatment, AsPC-1 cells were seeded in 96-well cell culture plates at a density of 25,000 cells/well and incubated at 37° C., 5% CO2. A compound dose-response titration was diluted in growth media, added to appropriate wells of a cell culture plate, and then incubated at 37° C., 5% CO2 for 2 hours. […] Phosphorylation of ERK1/2 in compound-treated lysates was assayed using Phospho-ERK1/2 Whole Cell Lysate kits (Meso Scale Discovery K151DWD) according to the manufacturer's protocol. Assay plates were read on a Meso Scale Discovery Sector Imager 6000, and data were analyzed using a 4-parameter logistic model to calculate IC50 values.

KRAS G12D [1] = target: KRAS G12D (Homo sapiens, UniProt P01116, G12D); assay: KRAS G12D TR-FRET Assay; conditions: His-tagged KRAS G12D, biotinylated KRPep-2d, read-out: KRAS G12D Binding IC50
Sequence of KRAS G12D (Homo sapiens, UniProt P01116, G12D) (P01116 1-188 isoform P01116-2 G12D): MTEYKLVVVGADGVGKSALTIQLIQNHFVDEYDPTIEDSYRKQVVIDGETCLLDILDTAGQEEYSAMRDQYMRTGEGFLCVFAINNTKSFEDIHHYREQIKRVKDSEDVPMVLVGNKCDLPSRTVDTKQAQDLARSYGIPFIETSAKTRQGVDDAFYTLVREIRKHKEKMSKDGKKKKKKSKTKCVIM
Description: The plate was incubated for 30 minutes at room temperature. Biotinylated KRPep-2d substrate (Amgen) was diluted to 20 nM in Assay Buffer and 2 uL was added to all wells and incubated for 1 hour at room temperature. Detection Reagent (0.4 nM LANCE Eu-W1024 Anti-6×His (Perkin Elmer AD0401), 5 nM streptavidin-d2 (Cisbio 610SADLA)) was prepared in Assay Buffer, then 4 μL was added to the plate and incubated for 1 hour at room temperature.

KRAS G12D [2] = target: KRAS G12D (Homo sapiens, UniProt P01116, C118A/G12D); assay: KRAS G12D Coupled Nucleotide Exchange Assay; format: biochemical; conditions: GDP-bound KRAS G12D/C118A, 2 hours pre-incubation, SOS-mediated nucleotide exchange, AlphaScreen
Sequence of KRAS G12D (Homo sapiens, UniProt P01116, C118A/G12D) (P01116 1-169 isoform P01116-2 G12D/C118A): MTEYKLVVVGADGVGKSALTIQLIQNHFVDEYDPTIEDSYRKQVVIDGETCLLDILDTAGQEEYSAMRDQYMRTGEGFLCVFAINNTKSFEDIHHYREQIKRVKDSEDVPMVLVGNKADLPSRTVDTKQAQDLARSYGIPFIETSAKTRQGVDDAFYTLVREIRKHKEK
Description: The assay plates were then read on a PerkinElmer EnVision Multilabel Reader, using AlphaScreen® technology, and data were analyzed using a 4-parameter logistic model to calculate IC50 values.

[3] = Homo sapiens, ASPC1, 2 h, read-out: 2 h p-ERK (AsPC-1 cells), IC50 (μM), AsPC-1 cells, 2 hours compound treatment
[4] = read-out: 2 h p-ERK (AsPC-1 cells), IC50, AsPC-1 cells, 2 hours compound treatment

An IC50 (p-ERK (AsPC-1 cells); [3]) of 0.034 µM, an IC50 (KRAS G12D [1]) of 1 nM and an IC50 (KRAS G12D [2]) of 2 nM were found for CCc1c(F)ccc2cc(O)cc(-c3ncc4c(N5CC(O)CC6(CC6)C5)nc(OC[C@@]56CCCN5C[C@H](F)C6)nc4c3F)c12 (single isomer, unassigned) [Example 3] in this work.

An IC50 (KRAS G12D [1]) of 2 nM and an IC50 (KRAS G12D [2]) of 3 nM were found for CCc1c(F)ccc2cc(O)cc(-c3ncc4c(N5CC(O)CC6(CC6)C5)nc(OC[C@@]56CCCN5C[C@H](F)C6)nc4c3F)c12 (single isomer, unassigned) [Example 4] in this work.

An IC50 (KRAS G12D [1]) of 3 nM and an IC50 (KRAS G12D [2]) of 8 nM were found for CCc1c(F)ccc2cc(O)cc(-c3ncc4c(N5CCCC6(CNC(=O)C6)C5)nc(OC[C@@]56CCCN5C[C@H](F)C6)nc4c3F)c12 (single isomer, unassigned) [Example 7] in this work.

An IC50 (p-ERK (AsPC-1 cells); [3]) of 0.252 µM, an IC50 (KRAS G12D [1]) of 2 nM and an IC50 (KRAS G12D [2]) of 4 nM were found for CCc1c(F)ccc2cc(O)cc(-c3ncc4c(N5CCCC6(CNC(=O)C6)C5)nc(OC[C@@]56CCCN5C[C@H](F)C6)nc4c3F)c12 (single isomer, unassigned) [Example 8] in this work.

An IC50 (p-ERK (AsPC-1 cells); [4]) of 1.99 µM, an IC50 (KRAS G12D [1]) of 2 nM and an IC50 (KRAS G12D [2]) of 5 nM were found for CCc1c(F)ccc2cc(O)cc(-c3ncc4c(N5CCCC6(CC(=O)N6)C5)nc(OC[C@@]56CCCN5C[C@H](F)C6)nc4c3F)c12 (single isomer, unassigned) [Example 9] in this work.

An IC50 (p-ERK (AsPC-1 cells); [4]) of 0.044 µM, an IC50 (KRAS G12D [1]) of 1 nM and an IC50 (KRAS G12D [2]) of 2 nM were found for CCc1c(F)ccc2cc(O)cc(-c3ncc4c(N5CCCC6(CC(=O)N6)C5)nc(OC[C@@]56CCCN5C[C@H](F)C6)nc4c3F)c12 (single isomer, unassigned) [Example 10] in this work.

An IC50 (p-ERK (AsPC-1 cells); [3]) of 0.119 µM, an IC50 (KRAS G12D [1]) of 2 nM and an IC50 (KRAS G12D [2]) of 2 nM were found for Oc1cc(-c2ncc3c(N4CCCC5(CC(O)C5)C4)nc(OC[C@@]45CCCN4C[C@H](F)C5)nc3c2F)c2c(F)c(F)ccc2c1 (single isomer, unassigned) [Example 11] in this work.

An IC50 (p-ERK (AsPC-1 cells); [4]) of 0.121 µM, an IC50 (KRAS G12D [1]) of 2 nM and an IC50 (KRAS G12D [2]) of 2 nM were found for Oc1cc(-c2ncc3c(N4CCCC5(CC(O)C5)C4)nc(OC[C@@]45CCCN4C[C@H](F)C5)nc3c2F)c2c(F)c(F)ccc2c1 (single isomer, unassigned) [Example 12] in this work.

An IC50 (p-ERK (AsPC-1 cells); [3]) of 0.022 µM, an IC50 (KRAS G12D [1]) of 2 nM and an IC50 (KRAS G12D [2]) of 1 nM were found for CCc1cccc2cc(O)cc(-c3ncc4c(N5CCCC6(CC(O)C6)C5)nc(OC[C@@]56CCCN5C[C@H](F)C6)nc4c3F)c12 (single isomer, unassigned) [Example 13] in this work.

An IC50 (p-ERK (AsPC-1 cells); [4]) of 0.003 µM was found for CCc1c(F)ccc2cc(O)cc(-c3ncc4c(N5CCCC6(CCO6)C5)nc(OC[C@@]56CCCN5C[C@H](F)C6)nc4c3F)c12 (single isomer, unassigned) [Example 21] in this work.

An IC50 (p-ERK (AsPC-1 cells); [4]) of 0.252 µM was found for CCc1c(F)ccc2cc(O)cc(-c3ncc4c(N5CCCC6(CCO6)C5)nc(OC[C@@]56CCCN5C[C@H](F)C6)nc4c3F)c12 (single isomer, unassigned) [Example 22] in this work.

An IC50 (KRAS G12D [1]) of 59 nM and an IC50 (KRAS G12D [2]) of 65 nM were found for CCc1c(F)ccc2cc(O)cc(-c3ncc4c(N5CCCC6(CNC6=O)C5)nc(OC[C@@]56CCCN5C[C@H](F)C6)nc4c3F)c12 (single isomer, unassigned) [Example 46] in this work.

An IC50 (KRAS G12D [1]) of 36 nM and an IC50 (KRAS G12D [2]) of 54 nM were found for CCc1c(F)ccc2cc(O)cc(-c3ncc4c(N5CCCC6(CCC6O)C5)nc(OC[C@@]56CCCN5C[C@H](F)C6)nc4c3F)c12 (single isomer, unassigned) [Example 48] in this work.

An IC50 (p-ERK (AsPC-1 cells); [4]) of 0.008 µM was found for CCc1c(F)ccc2cc(O)cc(-c3ncc4c(N5CCCC6(CC(O)C6)C5)nc(OC[C@@]56CCCN5C[C@H](F)C6)nc4c3F)c12 (single isomer, unassigned) [Example 54] in this work.

An IC50 (p-ERK (AsPC-1 cells); [4]) of 0.078 µM was found for CCc1c(F)ccc2cc(O)cc(-c3ncc4c(N5CCCC6(CC(O)C6)C5)nc(OC[C@@]56CCCN5C[C@H](F)C6)nc4c3F)c12 (single isomer, unassigned) [Example 55] in this work.

An IC50 (KRAS G12D [1]) of 68 nM and an IC50 (KRAS G12D [2]) of 42 nM were found for CCc1c(F)ccc2cc(O)cc(-c3ncc4c(N5CCCC6(CCO6)C5)nc(OC[C@@]56CCCN5C[C@H](F)C6)nc4c3C)c12 (single isomer, unassigned) [Example 62] in this work.

An IC50 (KRAS G12D [1]) of 305 nM and an IC50 (KRAS G12D [2]) of 129 nM were found for CCc1c(F)ccc2cccc(-c3ncc4c(N5CCCC6(CNC(=O)O6)C5)nc(OC[C@@]56CCCN5C[C@H](F)C6)nc4c3F)c12 (single isomer, unassigned) [Example 64] in this work.

An IC50 (KRAS G12D [1]) of 74 nM and an IC50 (KRAS G12D [2]) of 42 nM were found for CCc1c(F)ccc2cc(O)cc(-c3ncc4c(N5CCCC6(CCC(=O)O6)C5)nc(OC[C@@]56CCCN5C[C@H](F)C6)nc4c3F)c12 (single isomer, unassigned) [Example 65] in this work.

An IC50 (KRAS G12D [1]) of 56 nM and an IC50 (KRAS G12D [2]) of 50 nM were found for CCc1c(F)ccc2cc(O)cc(-c3ncc4c(N5CCOCC6(COC6)C5)nc(OCC56CCCN5C[C@H](F)C6)nc4c3F)c12 (stereo in doubt) [Example 50, 5-Ethyl-6-fluoro-4-(8-fluoro-2-(((2R,7aS)-2-fluorotetrahydro-1H-pyrrolizin-7a(5H)-yl)methoxy)-4-(2,6-dioxa-9-azaspiro[3.6]decan-9-yl)pyrido[4,3-d]pyrimidin-7-yl)naphthalen-2-ol] in this work.

An IC50 (KRAS G12D [1]) of 17 nM and an IC50 (KRAS G12D [2]) of 13 nM were found for CCc1c(F)ccc2cc(O)cc(-c3ncc4c(N5CCC6(CCCS6(=O)=O)C5)nc(OCC56CCCN5C[C@H](F)C6)nc4c3F)c12 (stereo in doubt) [Example 51, 7-(7-(8-Ethyl-7-fluoro-3-hydroxynaphthalen-1-yl)-8-fluoro-2-(((2R,7aS)-2-fluorotetrahydro-1H-pyrrolizin-7a(5H)-yl)methoxy)pyrido[4,3-d]pyrimidin-4-yl)-1-thia-7-azaspiro[4.4]nonane 1,1-dioxide] in this work.

An IC50 (KRAS G12D [1]) of 40 nM and an IC50 (KRAS G12D [2]) of 17 nM were found for CCc1c(F)ccc2cc(O)cc(-c3ncc4c(N5CCCC6(CCN6)C5)nc(OC[C@@]56CCCN5C[C@H](F)C6)nc4c3F)c12 (stereo partly drawn) [Example 5, 5-Ethyl-6-fluoro-4-(8-fluoro-2-(((2R,7aS)-2-fluorotetrahydro-1H-pyrrolizin-7a(5H)-yl)methoxy)-4-(1,6-diazaspiro[3.5]nonan-6-yl)pyrido[4,3-d]pyrimidin-7-yl)naphthalen-2-ol] in this work.

An IC50 (KRAS G12D [1]) of 2 nM and an IC50 (KRAS G12D [2]) of 3 nM were found for CCc1c(F)ccc2cc(O)cc(-c3ncc4c(N5CCCC6(COC6)C5)nc(OC[C@@]56CCCN5C[C@H](F)C6)nc4c3F)c12 [Example 20, 5-Ethyl-6-fluoro-4-(8-fluoro-2-(((2R,7aS)-2-fluorotetrahydro-1H-pyrrolizin-7a(5H)-yl)methoxy)-4-(2-oxa-6-azaspiro[3.5]nonan-6-yl)pyrido[4,3-d]pyrimidin-7-yl)naphthalen-2-ol] in this work.

An IC50 (KRAS G12D [1]) of 27 nM and an IC50 (KRAS G12D [2]) of 28 nM were found for CCc1c(F)ccc2cc(O)cc(-c3ncc4c(N5CCOC6(CCC6)C5)nc(OC[C@@]56CCCN5C[C@H](F)C6)nc4c3F)c12 [Example 31, 5-Ethyl-6-fluoro-4-(8-fluoro-2-(((2R,7aS)-2-fluorotetrahydro-1H-pyrrolizin-7a(5H)-yl)methoxy)-4-(5-oxa-8-azaspiro[3.5]nonan-8-yl)pyrido[4,3-d]pyrimidin-7-yl)naphthalen-2-ol] in this work.

An IC50 (KRAS G12D [1]) of 4 nM and an IC50 (KRAS G12D [2]) of 5 nM were found for CCc1c(F)ccc2cccc(-c3ncc4c(N5CCCC6(CNC6=O)C5)nc(OC[C@@]56CCCN5C[C@H](F)C6)nc4c3F)c12 (stereo partly drawn) [Example 32, 6-(7-(8-Ethyl-7-fluoronaphthalen-1-yl)-8-fluoro-2-(((2R,7aS)-2-fluorotetrahydro-1H-pyrrolizin-7a(5H)-yl)methoxy)pyrido[4,3-d]pyrimidin-4-yl)-2,6-diazaspiro[3.5]nonan-1-one] in this work.

An IC50 (KRAS G12D [1]) of 31 nM and an IC50 (KRAS G12D [2]) of 33 nM were found for CCc1c(F)ccc2cc(O)cc(-c3ncc4c(N5CCCC6(CNC6)C5)nc(OC[C@@]56CCCN5C[C@H](F)C6)nc4c3F)c12 [Example 38, 5-Ethyl-6-fluoro-4-(8-fluoro-2-(((2R,7aS)-2-fluorotetrahydro-1H-pyrrolizin-7a(5H)-yl)methoxy)-4-(2,6-diazaspiro[3.5]nonan-6-yl)pyrido[4,3-d]pyrimidin-7-yl)naphthalen-2-ol] in this work.

An IC50 (KRAS G12D [1]) of 12 nM and an IC50 (KRAS G12D [2]) of 8 nM were found for CCc1c(F)ccc2cc(O)cc(-c3ncc4c(N5CCCC6(CCS6(=O)=O)C5)nc(OC[C@@]56CCCN5C[C@H](F)C6)nc4c3F)c12 (some centres unmarked) [Example 43] in this work.

An IC50 (KRAS G12D [1]) of 51 nM and an IC50 (KRAS G12D [2]) of 24 nM were found for CCc1c(F)ccc2cc(O)cc(-c3ncc4c(N5CCCC6(CCNC6=O)C5)nc(OC[C@@]56CCCN5C[C@H](F)C6)nc4c3F)c12 (stereo partly drawn) [Example 47, 7-(7-(8-Ethyl-7-fluoro-3-hydroxynaphthalen-1-yl)-8-fluoro-2-(((2R,7aS)-2-fluorotetrahydro-1H-pyrrolizin-7a(5H)-yl)methoxy)pyrido[4,3-d]pyrimidin-4-yl)-2,7-diazaspir[4.5]decan-1-one] in this work.

An IC50 (KRAS G12D [1]) of 6 nM and an IC50 (KRAS G12D [2]) of 6 nM were found for CCc1c(F)ccc2cc(O)cc(-c3ncc4c(N5CCCC6(C5)CN(S(C)(=O)=O)C6)nc(OC[C@@]56CCCN5C[C@H](F)C6)nc4c3F)c12 [Example 52, 5-Ethyl-6-fluoro-4-(8-fluoro-2-(((2R,7aS)-2-fluorotetrahydro-1H-pyrrolizin-7a(5H)-yl)methoxy)-4-(2-(methylsulfonyl)-2,6-diazaspiro[3.5]nonan-6-yl)pyrido[4,3-d]pyrimidin-7-yl)naphthalen-2-ol] in this work.
